These results are taken from patent publication US9586968B2, “Bicycloamine-substituted-N-benzenesulfonamide compounds with selective activity in voltage-gated sodium channels” (Merck Sharp & Dohme Corp., priority 2013, dated 2017).

In one experiment the target is T1, human Nav1.7 (Homo sapiens, UniProt Q15858).
T1 construct: expressed in transfected cells
In words: PatchXpress automated patch-clamp, inactivated state block of Nav1.7. As to conditions: channels stably expressed in HEK 293 cells, 22° C., read-out: potency for the Nav 1.7 sodium ion channel (as measured by PatchXpress). Format: cell-based. How it is done: (§1) Compounds were tested on human Nav1.7 and Nav1.5 channels stably expressed in HEK 293 cells. Activity toward Nav 1.7 and Nav 1.5 channels was assessed using the following assay methodology.
(§2) Sodium Current Measurements on the PatchXpress 7000®:
(§3) To measure inactivated state block of sodium channels, test compounds were characterized in an automated PatchXpress® assay (Molecular Devices) using a double-pulse protocol on human Nav1.7 and Nav1.5 channels stably expressed in HEK 293 cells. Cells were held at a potential 20 mV negative to V0.5 inact. An 8000 ms pre-pulse 7 mV positive to V0.5 inact was given followed by a hyperpolarizing 2 ms pulse to −120 mV and a 20 ms test pulse to −20 mV. Protocol was applied to cells in the absence, presence of compound and after washout. The temperature of PatchXpress instruments was maintained at 22° C. The following recording solutions were used. Internal solution (mM): 30 CsCl, 5 HEPES, 10 EGTA, 120 CsF, 5 NaF, 2 MgCl2. External solution (mM): 120 NMDG, 40 NaCl, 1 KCl, 0.5 MgCl2, 5 HEPES, 2.7 CaCl2.
(§4) For all electrophysiology experiments, offline analysis was used to correct for current rundown and to determine percent inhibition as a function of drug concentration. IC50 values were determined by fitting to the Hill equation.
In general terms: In patch-clamp work, channel activity is measured electrically.

The target in the next experiment is T2, human Nav1.5 (Homo sapiens, UniProt Q14524).
T2 construct: expressed in transfected cells
In words: PatchXpress automated patch-clamp, inactivated state block of Nav1.5 (selectivity). Format: cell-based. The following applies: determined by PatchXpress measurement, HEK 293 cells. How it is done:
as §1, §2, §3, §4

pIC50: −log10 of the molar value.

T1 sequence (Q15858 whole entry): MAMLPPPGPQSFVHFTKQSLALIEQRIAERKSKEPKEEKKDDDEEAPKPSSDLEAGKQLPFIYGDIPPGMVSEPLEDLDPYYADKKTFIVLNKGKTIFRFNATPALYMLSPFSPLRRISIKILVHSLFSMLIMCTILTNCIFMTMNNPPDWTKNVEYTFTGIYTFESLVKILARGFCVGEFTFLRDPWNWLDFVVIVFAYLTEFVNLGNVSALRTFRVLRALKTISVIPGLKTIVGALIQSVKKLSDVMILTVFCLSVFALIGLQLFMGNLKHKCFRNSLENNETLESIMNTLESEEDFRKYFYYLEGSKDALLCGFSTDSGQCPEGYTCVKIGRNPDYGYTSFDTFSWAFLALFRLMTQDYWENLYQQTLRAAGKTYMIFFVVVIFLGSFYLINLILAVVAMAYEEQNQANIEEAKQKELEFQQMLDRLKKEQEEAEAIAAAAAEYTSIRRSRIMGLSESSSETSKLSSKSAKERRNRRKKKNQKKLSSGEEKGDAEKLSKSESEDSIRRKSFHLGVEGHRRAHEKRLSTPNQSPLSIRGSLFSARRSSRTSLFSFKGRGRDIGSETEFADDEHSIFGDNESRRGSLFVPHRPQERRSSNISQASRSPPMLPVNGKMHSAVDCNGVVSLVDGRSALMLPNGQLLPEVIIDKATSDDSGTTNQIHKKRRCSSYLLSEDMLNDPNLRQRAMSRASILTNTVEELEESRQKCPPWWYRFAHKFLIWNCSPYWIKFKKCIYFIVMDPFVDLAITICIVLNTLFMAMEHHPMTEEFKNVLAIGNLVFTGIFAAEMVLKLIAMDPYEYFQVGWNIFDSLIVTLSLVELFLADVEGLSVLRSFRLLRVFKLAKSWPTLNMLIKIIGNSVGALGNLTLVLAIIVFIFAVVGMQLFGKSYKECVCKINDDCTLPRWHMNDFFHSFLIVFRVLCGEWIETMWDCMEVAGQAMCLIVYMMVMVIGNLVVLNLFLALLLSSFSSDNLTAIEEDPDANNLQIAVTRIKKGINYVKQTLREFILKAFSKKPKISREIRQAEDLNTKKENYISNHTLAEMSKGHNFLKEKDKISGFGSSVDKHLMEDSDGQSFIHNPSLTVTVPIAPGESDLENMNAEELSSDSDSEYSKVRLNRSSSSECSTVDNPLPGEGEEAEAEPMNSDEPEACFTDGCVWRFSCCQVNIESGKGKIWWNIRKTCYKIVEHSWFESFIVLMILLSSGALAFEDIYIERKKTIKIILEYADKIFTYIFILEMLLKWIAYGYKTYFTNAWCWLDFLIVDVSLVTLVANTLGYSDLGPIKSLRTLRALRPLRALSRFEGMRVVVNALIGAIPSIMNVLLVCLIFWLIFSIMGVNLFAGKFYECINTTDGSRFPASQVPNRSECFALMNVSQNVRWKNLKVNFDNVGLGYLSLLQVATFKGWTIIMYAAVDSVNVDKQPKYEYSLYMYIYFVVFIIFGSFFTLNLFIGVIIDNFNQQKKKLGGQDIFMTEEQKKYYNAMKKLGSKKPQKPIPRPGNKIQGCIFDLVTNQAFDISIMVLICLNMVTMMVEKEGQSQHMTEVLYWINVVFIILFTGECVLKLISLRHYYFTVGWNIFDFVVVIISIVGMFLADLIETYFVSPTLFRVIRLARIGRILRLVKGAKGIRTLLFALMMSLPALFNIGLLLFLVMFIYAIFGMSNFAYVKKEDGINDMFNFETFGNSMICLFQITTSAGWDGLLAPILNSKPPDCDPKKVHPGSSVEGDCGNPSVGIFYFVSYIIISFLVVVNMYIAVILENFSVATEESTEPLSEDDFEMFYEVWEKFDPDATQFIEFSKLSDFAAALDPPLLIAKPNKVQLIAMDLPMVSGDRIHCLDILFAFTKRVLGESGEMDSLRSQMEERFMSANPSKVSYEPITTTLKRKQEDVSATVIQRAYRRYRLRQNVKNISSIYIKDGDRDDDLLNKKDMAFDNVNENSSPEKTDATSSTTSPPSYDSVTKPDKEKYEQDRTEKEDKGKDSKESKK
T2 sequence (Q14524 whole entry): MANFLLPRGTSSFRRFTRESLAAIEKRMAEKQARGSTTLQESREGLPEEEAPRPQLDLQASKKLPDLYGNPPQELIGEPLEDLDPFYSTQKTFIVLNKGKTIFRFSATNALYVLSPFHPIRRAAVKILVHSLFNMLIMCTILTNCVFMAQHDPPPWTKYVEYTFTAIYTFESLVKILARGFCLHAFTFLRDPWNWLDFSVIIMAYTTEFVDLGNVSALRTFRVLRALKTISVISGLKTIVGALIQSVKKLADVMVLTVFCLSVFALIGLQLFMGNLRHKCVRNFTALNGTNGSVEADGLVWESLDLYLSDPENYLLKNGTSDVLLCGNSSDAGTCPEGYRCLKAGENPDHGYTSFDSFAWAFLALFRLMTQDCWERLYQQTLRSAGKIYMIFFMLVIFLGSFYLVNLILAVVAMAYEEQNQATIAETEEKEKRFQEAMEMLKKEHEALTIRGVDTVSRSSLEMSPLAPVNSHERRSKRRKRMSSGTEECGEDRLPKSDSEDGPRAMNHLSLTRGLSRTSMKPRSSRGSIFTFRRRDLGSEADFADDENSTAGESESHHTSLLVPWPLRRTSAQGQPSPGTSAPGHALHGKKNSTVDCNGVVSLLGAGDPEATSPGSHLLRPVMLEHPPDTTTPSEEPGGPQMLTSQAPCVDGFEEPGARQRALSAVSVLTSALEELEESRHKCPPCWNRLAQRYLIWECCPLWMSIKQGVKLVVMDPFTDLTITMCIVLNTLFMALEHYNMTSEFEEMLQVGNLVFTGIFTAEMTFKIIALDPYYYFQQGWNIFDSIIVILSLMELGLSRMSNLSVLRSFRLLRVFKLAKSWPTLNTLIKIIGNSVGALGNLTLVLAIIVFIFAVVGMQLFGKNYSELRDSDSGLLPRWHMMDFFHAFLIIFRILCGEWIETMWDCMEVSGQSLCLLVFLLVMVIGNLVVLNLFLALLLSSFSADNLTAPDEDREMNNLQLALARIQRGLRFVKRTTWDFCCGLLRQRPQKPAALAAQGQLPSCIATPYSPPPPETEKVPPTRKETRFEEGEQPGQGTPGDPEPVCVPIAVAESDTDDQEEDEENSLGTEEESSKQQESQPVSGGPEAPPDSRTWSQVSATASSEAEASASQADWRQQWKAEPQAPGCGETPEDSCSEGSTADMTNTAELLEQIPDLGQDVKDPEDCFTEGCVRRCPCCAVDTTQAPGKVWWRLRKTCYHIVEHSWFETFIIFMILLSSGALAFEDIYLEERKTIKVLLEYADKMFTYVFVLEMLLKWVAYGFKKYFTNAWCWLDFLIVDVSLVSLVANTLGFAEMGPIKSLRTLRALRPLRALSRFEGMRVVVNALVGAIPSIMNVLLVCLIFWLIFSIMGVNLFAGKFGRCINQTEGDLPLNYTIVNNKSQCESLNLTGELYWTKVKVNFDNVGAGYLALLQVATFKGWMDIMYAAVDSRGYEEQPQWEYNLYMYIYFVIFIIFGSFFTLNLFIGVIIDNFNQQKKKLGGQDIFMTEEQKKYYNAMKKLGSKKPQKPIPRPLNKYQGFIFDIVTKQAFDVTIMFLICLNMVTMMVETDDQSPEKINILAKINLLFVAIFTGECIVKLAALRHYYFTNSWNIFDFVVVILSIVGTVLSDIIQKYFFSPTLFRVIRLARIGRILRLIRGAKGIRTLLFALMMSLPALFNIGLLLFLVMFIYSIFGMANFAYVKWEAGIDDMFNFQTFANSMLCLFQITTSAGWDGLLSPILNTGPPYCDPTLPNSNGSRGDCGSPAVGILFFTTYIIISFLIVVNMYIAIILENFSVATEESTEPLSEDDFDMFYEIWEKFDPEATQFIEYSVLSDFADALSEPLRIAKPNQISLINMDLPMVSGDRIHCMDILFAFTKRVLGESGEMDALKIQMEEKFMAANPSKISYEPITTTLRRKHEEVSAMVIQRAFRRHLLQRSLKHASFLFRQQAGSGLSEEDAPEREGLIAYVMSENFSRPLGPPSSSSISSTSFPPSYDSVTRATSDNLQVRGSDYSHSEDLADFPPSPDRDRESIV

For `O=S(=O)(Nc1ncc(Cl)s1)c1cc(Cl)c(NCC23CCCN2CC2(C3)OCCO2)cc1F` (single isomer, unassigned) [Ex10-9-B, (R or S)-5-chloro-N-(5-chloro-thiazol-2-yl)-2-fluoro-4-(((hexahydrospiro[[1,3]-dioxolane-2,2′-pyrrolizin]-7a′-yl)-methyl)amino)-benzenesulfonamide], the pIC50 on human Nav1.7 was 6.97. Moreover, the “ratio of Nav1.7 potency:Nav 1.5 potency” value on human Nav1.5 came out at 277.

For the compound `N#Cc1cc(S(=O)(=O)Nc2cccc(F)n2)ccc1NCC12CCCN1CCC2` [Ex2-3, 3-cyano-N-(6-fluoropyridin-2-yl)-4-[(tetrahydro-1H-pyrrolizin-7a(5H)-ylmethyl)amino]benzene-sulfonamide], the pIC50 at human Nav1.7 is 6.77. Further, the “ratio of Nav1.7 potency:Nav 1.5 potency” value on human Nav1.5 is reported as 18.

In the case of `Cc1csc(NS(=O)(=O)c2cc(Cl)c(NCC34CCCN3CC(C)(C)C4)cc2F)n1` (racemic) [Ex8-25, (R and S)-5-chloro-4-(((2,2-dimethylhexahydro-1H-pyrrolizin-7a-yl)methyl)amino)-2-fluoro-N-(4-methylthiazol-2-yl)benzenesulfonamide], the pIC50 on human Nav1.7 is 7.49. The “ratio of Nav1.7 potency:Nav 1.5 potency” value on human Nav1.5 turned out to be 947.

Take `O=S(=O)(Nc1ncc(Cl)s1)c1cc(Cl)c(NCC23CCCN2CC(F)(F)C3)cc1F` (racemic) [Ex6-8, (R and S)-5-chloro-N-(5-chloro-1,3-thiazol-2-yl)-4-{[(2,2-difluorotetrahydro-1H-pyrrolizin-7a(5H)-yl)methyl]amino}-2-fluorobenzenesulfonamide]: on human Nav1.7, the pIC50 was 5.89. The “ratio of Nav1.7 potency:Nav 1.5 potency” value on human Nav1.5 turned out to be 19.

Regarding `N#Cc1cc(NCC23CCCN2CCC3)c(Cl)cc1S(=O)(=O)Nc1nccs1` [Ex12-6, 5-chloro-2-cyano-4-(((hexahydro-1H-pyrrolizin-7a-yl)methyl)amino)-N-(thiazol-2-yl)benzenesulfonamide], the pIC50 at human Nav1.7 is 7.02. Moreover, the “ratio of Nav1.7 potency:Nav 1.5 potency” value on human Nav1.5 amounted to 180.

Turning to `COc1ccc([C@@H]2CN3CCC[C@@]3(CNc3cc(F)c(S(=O)(=O)Nc4nccs4)cc3Cl)C2)cc1` (single isomer, unassigned) [Ex16-12-A], the pIC50 at human Nav1.7 was 7.29. The “ratio of Nav1.7 potency:Nav 1.5 potency” value at human Nav1.5 was 348.

Consider `CC1CCC2(CNc3ccc(S(=O)(=O)Nc4nccs4)cc3C(F)(F)F)CCCN12` (single isomer, unassigned) [Ex11-10-A, 4-((((3S,7aS or 3R,7aR)-3-methyl-hexahydro-1H-pyrrolizin-7a-yl)methyl)-amino)-N-(thiazol-2-yl)-3-(trifluoromethyl)-benzenesulfonamide], for which, on human Nav1.7, the pIC50 is 7.66. The “ratio of Nav1.7 potency:Nav 1.5 potency” value at human Nav1.5 is 1376.

For `O=S(=O)(Nc1ncc(Br)s1)c1cc(Cl)c(NCC23CCCN2CCC3)cc1F` [Ex1-13, N-(5-bromothiazol-2-yl)-5-chloro-2-fluoro-4-(((hexahydro-1H-pyrrolizin-7a-yl)methyl)amino)benzene-sulfonamide], the pIC50 at human Nav1.7 was 7.37. Further, the “ratio of Nav1.7 potency:Nav 1.5 potency” value on human Nav1.5 is 1507.

With `O=S(=O)(Nc1nccs1)c1ccc(NCC23CCCN2CCC3)c(Cl)c1` [Ex1-14, 3-chloro-4-(((hexahydro-1H-pyrrolizin-7a-yl)methyl)amino)-N-(thiazol-2-yl)benzenesulfonamide], the pIC50 on human Nav1.7 was 7.32. In addition, the “ratio of Nav1.7 potency:Nav 1.5 potency” value on human Nav1.5 worked out at 337.

As to `O=S(=O)(Nc1nccs1)c1cc(Cl)c(NCC23CCCN2C(CF)CC3)cc1F` (racemic) [Ex14-10, 5-chloro-2-fluoro-4-((((3S,7aS and 3R,7aR)-3-(fluoromethyl)hexahydro-1H-pyrrolizin-7a-yl)methyl)amino)-N-(thiazol-2-yl)benzenesulfonamide], the pIC50 at human Nav1.7 is 7.23. In addition, the “ratio of Nav1.7 potency:Nav 1.5 potency” value at human Nav1.5 was found to be 509.
